Drawing on US8598356B2, “Heteroaryl-substituted urea modulators of fatty acid amide hydrolase” (Janssen Pharmaceutica NV, priority 2008, dated 2013), this text covers IC50 for 5 compounds.

The target in one experiment is T1, Human FAAH (Homo sapiens, UniProt O00519).
T1 construct: expressed in transfected cells; alternatively T84 frozen cell pellets
T1 sequence (O00519 1-579): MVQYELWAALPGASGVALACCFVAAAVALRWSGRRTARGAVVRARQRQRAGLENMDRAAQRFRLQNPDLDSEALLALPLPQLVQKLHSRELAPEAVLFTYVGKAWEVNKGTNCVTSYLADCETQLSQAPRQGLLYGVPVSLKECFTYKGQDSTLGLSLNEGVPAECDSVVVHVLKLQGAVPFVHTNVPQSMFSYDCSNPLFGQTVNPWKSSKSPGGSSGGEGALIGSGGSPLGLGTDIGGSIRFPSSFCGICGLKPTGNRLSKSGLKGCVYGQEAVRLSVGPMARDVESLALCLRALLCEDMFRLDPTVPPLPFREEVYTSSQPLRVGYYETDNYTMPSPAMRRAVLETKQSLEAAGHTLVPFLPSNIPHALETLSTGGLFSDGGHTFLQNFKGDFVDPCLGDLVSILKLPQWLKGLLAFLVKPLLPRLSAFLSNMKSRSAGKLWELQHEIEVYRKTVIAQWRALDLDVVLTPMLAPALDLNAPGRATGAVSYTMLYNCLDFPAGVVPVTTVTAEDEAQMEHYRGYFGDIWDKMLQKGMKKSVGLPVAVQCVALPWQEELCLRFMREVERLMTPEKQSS
The experiment is described as follows: Assay Method 1: FAAH assay, hydrolysis of 3H-anandamide by cell homogenate. Type of experiment: biochemical. As to conditions: T84 or transfected SK-N-MC cell homogenate, 3H-AEA 80 nM, rt 1 h, average of results obtained. Here is the method: A. Transfection of Cells with Human FAAH
(§1) A 10-cm tissue culture dish with a confluent monolayer of SK-N-MC cells was split 2 days (d) prior to transfection. Using sterile technique, the media was removed and the cells were detached from the dish by the addition of trypsin. One fifth of the cells were then placed onto a new 10-cm dish. Cells were grown in a 37° C. incubator with 5% CO2 in Minimal Essential Media Eagle with 10% Fetal Bovine Serum. After 2 d, cells were approximately 80% confluent. These cells were removed from the dish with trypsin and pelleted in a clinical centrifuge. The pellet was re-suspended in 400 μL complete media and transferred to an electroporation cuvette with a 0.4 cm gap between the electrodes. Supercoiled human FAAH cDNA (1 μg) was added to the cells and mixed. The voltage for the electroporation was set at 0.25 kV, and the capacitance was set at 960 μF. After electroporation, the cells were diluted into complete media (10 mL) and plated onto four 10-cm dishes. Because of the variability in the efficiency of electroporation, four different concentrations of cells were plated. The ratios used were 1:20, 1:10, and 1:5, with the remainder of the cells being added to the fourth dish. The cells were allowed to recover for 24 h before adding the selection media (complete media with 600 μg/mL G418). After 10 d, dishes were analyzed for surviving colonies of cells. Dishes with well-isolated colonies were used. Cells from individual colonies were isolated and tested.
(§2) T84 frozen cell pellets or transfected SK-N-MC cells (contents of 1×15 cm culture dishes) were homogenized in 50 mL of FAAH assay buffer (125 mM Tris, 1 mM EDTA, 0.2% Glycerol, 0.02% Triton X-100, 0.4 mM Hepes, pH 9). The assay mixture consisted of 50 μL of the cell homogenate, 10 μL of the test compound, and 40 μL of anandamide [1-^3H-ethanolamine] (^3H-AEA, Perkin-Elmer, 10.3 Ci/mmol), which was added last, for a final tracer concentration of 80 nM. The reaction mixture was incubated at rt for 1 h. During the incubation, 96-well Multiscreen filter plates (catalog number MAFCNOB50; Millipore, Bedford, Mass., USA) were loaded with 25 μL of activated charcoal (Multiscreen column loader, catalog number MACL09625, Millipore) and washed once with 100 μL of MeOH. Also during the incubation, 96-well DYNEX MicroLite plates (catalog number NL510410) were loaded with 100 μL of MicroScint40 (catalog number 6013641, Packard Bioscience, Meriden, Conn., USA). After the 1 h incubation, 60 μL of the reaction mixture were transferred to the charcoal plates, which were then assembled on top of the DYNEX plates using
Centrifuge Alignment Frames (catalog number MACF09604, Millipore). The unbound labeled ethanolamine was centrifuged through to the bottom plate (5 min at 2000 rpm), which was preloaded with the scintillant, as described above. The plates were sealed and left at rt for 1 h before counting on a Hewlett Packard TopCount.
(§3) Results for compounds tested in these assays are summarized in Table 1, as an average of results obtained. Compounds were tested in free base, hydrochloride salt, and/or trifluoroacetic acid salt forms. Where activity is shown as greater than (>) a particular value, the value is the solubility limit of the compound in the assay medium or the highest concentration tested in the assay.

A further experiment concerns the target T2, Rat FAAH (Rattus norvegicus, UniProt P97612).
T2 construct: expressed in transfected cells
T2 sequence (P97612 1-579): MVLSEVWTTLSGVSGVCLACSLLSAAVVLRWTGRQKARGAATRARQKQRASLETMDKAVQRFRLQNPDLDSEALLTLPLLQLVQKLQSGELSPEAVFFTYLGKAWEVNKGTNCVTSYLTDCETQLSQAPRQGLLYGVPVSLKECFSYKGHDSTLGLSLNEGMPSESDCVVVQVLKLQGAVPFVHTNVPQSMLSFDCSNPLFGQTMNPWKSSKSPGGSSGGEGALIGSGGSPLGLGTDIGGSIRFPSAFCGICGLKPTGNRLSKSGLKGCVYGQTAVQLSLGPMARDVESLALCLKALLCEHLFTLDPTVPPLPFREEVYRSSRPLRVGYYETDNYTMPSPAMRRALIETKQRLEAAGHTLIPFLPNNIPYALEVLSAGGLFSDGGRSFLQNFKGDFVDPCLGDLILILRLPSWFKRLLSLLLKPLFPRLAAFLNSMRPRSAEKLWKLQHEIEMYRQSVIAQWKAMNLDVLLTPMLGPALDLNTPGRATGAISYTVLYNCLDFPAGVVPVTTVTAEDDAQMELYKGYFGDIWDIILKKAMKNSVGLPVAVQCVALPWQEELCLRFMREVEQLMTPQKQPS
The experiment can be described thus: Assay Method 2: FAAH assay, hydrolysis of 3H-anandamide by cell homogenate. As to conditions: T84 or transfected SK-N-MC cell homogenate, 3H-AEA 80 nM, rt 1 h, average of results obtained. In kind it is biochemical. Here is the method: A. Transfection of Cells with Rat FAAH
as §1, with “rat” for “human”, “[…]” for “960 μF.”
as §2, with “25” for “25 μL”, “using Centrifuge Alignment Frames (catalog number MACF09604, Millipore). The unbound labeled ethanolamine was centrifuged through to the bottom plate (5 min at 2000 rpm), which was preloaded with the scintillant, as described above. The plates were sealed and left at rt for 1 h before counting on a Hewlett Packard TopCount.” for “using”
as §3

Consider `O=C(Nc1cccnc1)N1CCCC(Cc2cccc(Oc3ccc(OC(F)(F)F)cc3)c2)C1` (stereo not shown) [Example 15, 3-[3-(4-Trifluoromethoxy-phenoxy)-benzyl]-piperidine-1-carboxylic acid pyridine-3-ylamide], for which the 50% inhibitory concentration (IC50) is 11 nM against Human FAAH and 17 nM at Rat FAAH.

Regarding `O=C(Nc1cccnc1)N1CCCC(Cc2cnc3ccccc3c2)C1` (stereo not shown) [Example 16, 3-Quinolin-3-ylmethyl-piperidine-1-carboxylic acid pyridin-3-ylamide], the IC50 at Human FAAH is 1000 nM; on Rat FAAH, greater than 10000 nM.

On to `O=C(Nc1cccnc1)N1CCCC(Cc2ccc(Cl)c(Cl)c2)C1` (stereo not shown) [Example 17, 3-(3,4-Dichloro-benzyl)-piperidine-1-carboxylic acid pyridin-3-ylamide], for which the values for the IC50 at Human FAAH and against Rat FAAH were 48 nM and 180 nM, respectively.

As for `O=C(Nc1cccnc1)N1CCCC(Cc2cccc(OC(F)(F)F)c2)C1` (stereo not shown) [Example 18, 3-(3-Trifluoromethoxy-benzyl)-piperidine-1-carboxylic acid pyridin-3-ylamide], the IC50 against Human FAAH was 190 nM; on Rat FAAH, 450 nM.

As to `O=C(Nc1cccnc1)N1CCCC(Cc2ccc(OC(F)(F)F)cc2)C1` (stereo not shown) [Example 19, 3-(4-Trifluoromethoxy-benzyl)-piperidine-1-carboxylic acid pyridin-3-ylamide], the values for the IC50 against Human FAAH and against Rat FAAH were 430 nM and 1600 nM, respectively.
